# Patent publication US7691848B2, “Pyrrolobenzodiazepine arylcarboxamides and derivatives thereof as follicle-stimulating hormone receptor antagonists” (Wyeth, priority 2005, dated 2010)
# Tests used:
# [1] = target: T1, human FSH receptor (Homo sapiens, UniProt P23945); assay: Follicle-Stimulating Hormone Receptor-Dependent Cre-Luciferase Reporter Gene Assay (CHO FSH-R 6CRE-Luc cells); type: cell-based; conditions: for inhibition at 30 µM: 2-dose format, concentration in parentheses 30 μM, inhibition of the response to EC50 of FSH; for IC50: dose-response format, in presence of EC50 of purified human FSH
# T1 construct: host or cells: CHO-K1 (CHO FSH-R 6CRE-Luc, 1D7 cells)
# T1 sequence (P23945 18-695): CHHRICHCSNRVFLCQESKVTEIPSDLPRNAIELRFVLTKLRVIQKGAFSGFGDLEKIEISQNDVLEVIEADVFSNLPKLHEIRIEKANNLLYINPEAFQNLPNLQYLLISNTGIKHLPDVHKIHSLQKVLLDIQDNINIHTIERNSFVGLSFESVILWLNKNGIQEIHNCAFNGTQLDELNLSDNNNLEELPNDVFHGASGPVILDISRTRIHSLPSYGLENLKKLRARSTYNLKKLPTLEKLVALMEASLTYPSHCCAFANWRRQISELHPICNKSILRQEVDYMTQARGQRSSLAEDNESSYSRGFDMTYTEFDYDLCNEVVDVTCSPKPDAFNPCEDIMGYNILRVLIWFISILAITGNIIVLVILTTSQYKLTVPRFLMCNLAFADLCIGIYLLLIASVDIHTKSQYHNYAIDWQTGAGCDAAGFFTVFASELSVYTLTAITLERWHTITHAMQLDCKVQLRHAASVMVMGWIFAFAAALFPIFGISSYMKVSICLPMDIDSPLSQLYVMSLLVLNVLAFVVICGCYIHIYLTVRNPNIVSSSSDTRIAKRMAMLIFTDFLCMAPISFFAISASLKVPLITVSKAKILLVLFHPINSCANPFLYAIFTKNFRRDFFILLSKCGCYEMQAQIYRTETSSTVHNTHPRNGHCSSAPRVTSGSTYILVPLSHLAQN
# From the text: Follicle-Stimulating Hormone Receptor-Dependent Cre-Luciferase Reporter Gene Assay for the Identification of Follicle-Stimulating Hormone (FSH) Antagonists
# A Chinese hamster ovarian cell line that stably produces the human FSH receptor and a luciferase reporter gene regulated by cAMP response elements was used to identify and determine the relative potencies of human FSH receptor antagonists. See for example, Kelton, C. A., et al. Mol. Cell. Endocrinol. 89:141-151 (1992), Tilly, J. L., et al. Endocrinology 131:799-806(1992), and George, S. E., et al. J. Biomol. Screening 2:235-240 (1997).
# Compound Vehicle: Stock compounds were solubilized in an appropriate vehicle, e.g., phosphate buffered saline (PBS) or dimethyl sulfoxide (DMSO), at 30 mM. The compounds were subsequently diluted in DMSO to working dilutions of 1 and 20 or 30 mM for 2-dose testing format and 1 μM-10 mM for dose-response format. The DMSO dilutions were diluted 500-fold in sterile growth medium [D-MEM/F-12 (GIBCO/BRL; Grand Island, NY) containing 15 mM HEPES, 2 mM 1-glutamine, pyridoxine hydrochloride, phenol red and 5% FetalClone® II (HyClone Laboratories, Inc; Logan, Utah), 0.2% DMSO, 100 units penicillin G/ml, and 100 μg streptomycin sulfate/ml (GIBCO/BRL)]. The concentration of the vehicle in each of the compound dilutions was the same.
# Positive Controls: Purified human FSH (>98%) was purchased from Cortex Biochem, Inc. (San Leandro, Calif.) and 3-[(2S*,5R*)-5-{[2-(1H-Indol-3-yl)-ethylcarbamoyl]-methyl}-4-oxo-2-(5-phenylethynyl-thiophen-2-yl)-thiazolidin-3-yl]-benzamide (an FSH-R thiazolidinone antagonist) was prepared by processes described by R. A. Scheuerman et al. in U.S. Pat. No. 6,426,357 (Affymax).
# The CHO FSH-R 6CRE-Luc cells (1D7 cells) were obtained from Affymax (Palo Alto, Calif.). These Chinese hamster ovary cells (CHO-K1) were engineered genetically to stably express the recombinant human FSH receptor gene and a luciferase reporter gene under the regulation of 6 copies of a cAMP response element. The cells were plated one day prior to treatment into 96-well white opaque plates at a density of 50,000 cells/100 μl/well in growth medium. On the day of treatment, the growth medium was removed from the wells by aspiration and 50 μl of fresh growth medium was added to each well. The cells were incubated at 37° C. in a humidified incubator with 5% CO2/95% air.
# The treated cells were incubated for 4 hours at 37° C. in a humidified incubator with 5% CO2/95% air. At the end of the incubation period, luciferase activity was measured by chemiluminescence using a commercially available kit (LucScreen, Tropix, Inc., Bedford, Mass.) according to the manufacturer's specifications, except that Buffer 1 and Buffer 2 were mixed together in equal proportion prior to the addition of 100 μl of the combined reagents to each well. Chemiluminescence was detected using a luminometer (EG & G Berthold Microlumat LB 96 P, Wallac, Gaithersburg, Md.) with chemiluminescence measured for 1 sec/well. Background luminescence was measured for each well prior to the addition of the LucScreen reagent.
# In the 96-well 2-dose format, each compound was tested in duplicate at each dose. […] One plate was used to test a maximum of 22 compounds.
# The EC50 of purified human FSH alone was tested in triplicate with each test compound. The doses chosen to test each compound were extrapolated from the initial 2-dose screening process. Along with the test compounds, purified human FSH also was tested in a dose response (0.03, 0.1, 0.3, 1, 3, 10, and 30 ng/ml) for a positive control and quality control. One plate was used for 3 test compounds and the FSH positive control.
# Luciferase activity is expressed as relative light units/sec/well. Luciferase activity in antagonist was compared to the appropriate negative and positive controls. For 2-dose testing, results are reported as luciferase activity and are expressed as percent inhibition of the response obtained from the EC50 of FSH.
compound,measurement,setting,value
"COc1cc(C(=O)N2Cc3ccc(C(=O)NCc4ccccc4C)n3Cc3ccccc32)ccc1-c1ccccc1C [Example 41, 10-[(2-METHOXY-2′-METHYL-1,1′-BIPHENYL-4-YL)CARBONYL]-N-(2-METHYLBENZYL)-10,11-DIHYDRO-5H-PYRROLO[2,1-C][1,4]BENZODIAZEPINE-3-CARBOXAMIDE]",melting point,,204 °C
same,inhibition at 30 µM,[1],62%
"COc1cc(C(=O)N2Cc3ccc(C(=O)NCCC(c4ccccc4)c4ccccc4)n3Cc3ccccc32)ccc1-c1ccccc1C [Example 59, N-(3,3-DIPHENYLPROPYL)-10-[(2-METHOXY-2′-METHYL-1,1′-BIPHENYL-4-YL)CARBONYL]-10,11-DIHYDRO-5H-PYRROLO[2,1-C][1,4]BENZODIAZEPINE-3-CARBOXAMIDE]",melting point,,214 °C
same,IC50,[1],> 30 µM
"CCOC(=O)c1ccc(NC(=O)c2ccc3n2Cc2ccccc2N(C(=O)COc2ccc(Cl)cc2)C3)cc1 [Example 96, ETHYL 4-[({10-[(4-CHLOROPHENOXY)ACETYL]-10,11-DIHYDRO-5H-PYRROLO[2,1-C][1,4]BENZODIAZEPIN-3-YL}CARBONYL)AMINO]BENZOATE]",melting point,,199 to 201 °C
same,IC50,[1],> 30 µM
Cc1ccccc1-c1ccc(C(=O)N2Cc3ccc(C(=O)NCCc4ccc(Cl)cc4)n3Cc3ccccc32)cc1C [Example 27],melting point,,169 to 171 °C
same,inhibition at 30 µM,[1],52%
Cc1ccccc1-c1ccc(C(=O)N2Cc3ccc(C(=O)NC4Cc5ccccc5C4)n3Cc3ccccc32)cc1C [Example 93],melting point,,219 to 220 °C
same,IC50,[1],> 30 µM
Cc1ccccc1-c1ccc(C(=O)N2Cc3ccc(C(=O)NC(C)c4ccccc4)n3Cc3ccccc32)cc1C (stereo not shown) [Example 13],melting point,,118 to 124 °C
same,IC50,[1],8.2 µM
COc1ccccc1-c1ccc(C(=O)N2Cc3ccc(C(=O)N[C@@H](CO)c4ccccc4)n3Cc3ccccc32)cc1 [Example 4],melting point,,195 to 196 °C
same,inhibition at 30 µM,[1],9%
O=C(NCc1ccc2c(c1)OCO2)c1ccc2n1Cc1ccccc1N(C(=O)COc1ccc(Cl)cc1)C2 [Example 69],melting point,,168 to 169 °C
same,inhibition at 30 µM,[1],21%
"O=C(NC1CCCc2ccccc21)c1ccc2n1Cc1ccccc1N(C(=O)CSc1ccc(Br)cc1)C2 (stereo not shown) [Example 87, 10-{[(4-BROMOPHENYL)THIO]ACETYL}-N-(1,2,3,4-TETRAHYDRONAPHTHALEN-1-YL)-10,11-DIHYDRO-5H-PYRROLO[2,1-C][1,4]BENZODIAZEPINE-3-CARBOXAMIDE]",melting point,,163 to 165 °C
same,inhibition at 30 µM,[1],3%
"COc1ccc(CCNC(=O)c2ccc3n2Cc2ccccc2N(C(=O)c2ccc(-c4ccccc4C)c(OC)c2)C3)cc1 [Example 47, 10-[(2-METHOXY-2′-METHYL-1,1′-BIPHENYL-4-YL)CARBONYL]-N-[2-(4-METHOXYPHENYL)ETHYL]-10,11-DIHYDRO-5H-PYRROLO[2,1-C][1,4]BENZODIAZEPINE-3-CARBOXAMIDE]",melting point,,193 to 195 °C
same,IC50,[1],> 30 µM
"COc1cc(C(=O)N2Cc3ccc(C(=O)NCCc4ccc(Cl)cc4)n3Cc3ccccc32)ccc1-c1ccccc1C [Example 53, N-[2-(4-CHLOROPHENYL)ETHYL]-10-[(2-METHOXY-2′-METHYL-1,1′-BIPHENYL-4-YL)CARBONYL]-10,11-DIHYDRO-5H-PYRROLO[2,1-C][1,4]BENZODIAZEPINE-3-CARBOXAMIDE]",melting point,,195 to 196 °C
same,IC50,[1],> 30 µM
Cc1ccccc1-c1ccc(C(=O)N2Cc3ccc(C(=O)NC(C)CCc4ccccc4)n3Cc3ccccc32)cc1C (stereo not shown) [Example 32],melting point,,152 to 154 °C
same,IC50,[1],~30 µM
COc1cc(C(=O)N2Cc3ccc(C(=O)NC(C)c4ccccc4)n3Cc3ccccc32)ccc1-c1ccccc1C (stereo not shown) [Example 58],melting point,,211 °C
same,IC50,[1],> 30 µM
"COc1cc(CNC(=O)c2ccc3n2Cc2ccccc2N(C(=O)c2ccc(-c4ccccc4C)c(OC)c2)C3)cc(OC)c1 [Example 89, N-(3,5-DIMETHOXYBENZYL)-10-[(2-METHOXY-2′-METHYL-1,1′-BIPHENYL-4-YL)CARBONYL]-10,11-DIHYDRO-5H-PYRROLO[2,1-C][1,4]BENZODIAZEPINE-3-CARBOXAMIDE]",melting point,,175 °C
same,IC50,[1],> 30 µM
